Reference: patent US7659071B2, “Methods and compositions relating to HPV-associated pre-cancerous and cancerous growths, including CIN” (Board of Regents, the University of Texas System, priority 2001, dated 2010)
Several values for one entry are separate records, joined by “and”; a condition that tells them apart may be missing. Equal entries are not always repeated.

Experiments:
PBMC [1] = assay: T-cell proliferation assay ([3H]thymidine incorporation, stimulation index); type: cell-based, human
Protocol: The proliferative responses of PBMCs from different samples can be determined by the standard ^3[H]thymidine incorporation assay as described in published articles (Nehete, 1996; Nehete, 1995). The significance of T-cell proliferative responses to the individual E6 and E7 peptides (in terms of stimulation index [SI]) can be calculated as the fold increase of ^3[H]thymidine incorporation by cells exposed to the peptide over that by the control to which no peptide was added. An SI value of at least 2.0, including at least about 2.1, 2.2, 2.3, 2.4, 2.5, 2.6, 2.7, 2.8, 2.9, 3.0, 3.1, 3.2, 3.3, 3.4, 3.5, 3.6, 3.7, 3.8, 3.9, 4.0 or more, which are considered positive responses. Generally, an SI value is calculated by measuring the amount of radioactivity (cpm) in media from cells incubated with the peptide(s) and dividing by the amount of radioactivity in media from cells not incubated with peptide(s) (media alone).
Heparinized blood was collected from the study participants by venipuncture. PBMCs were isolated by centrifugation on a Ficoll-Hypaque density gradient ([…]; Sigma Chemical Co., St. Louis, Mo.). The proliferative responses of PBMC from different individuals after stimulation with PHA, c-mos peptide, or individual E6 and E7 peptides (Table 4) were determined using the [^3H]thymidine incorporation assay as previously described Nehete et al., 1996). Briefly, each sample was seeded in triplicate in 96-well microtiter plates and incubated for 7 days at 37° C. in a humidified 5% CO2 atmosphere. During the final 16-18 h, 1 μCi of ^3[H]thymidine (6.7 Ci/mmol; ICN Biomedicals, Inc., Costa Mesa, Calif.) was added. The cells were harvested onto filter strips to estimate ^3[H]thymidine incorporation. The specific radioactivity of cells treated with various additions was calculated in each case by subtracting the counts per minute (cpm) values obtained with cells cultured in medium alone. […] The significance of T-cell proliferative responses to the individual E6 and E7 peptides (in terms of stimulation index [SI]) was calculated as the fold increase of [^3H]thymidine incorporation by cells exposed to the peptide over that by the control to which no peptide was added. An SI value ≧3.0, which was considered a positive response, was used for all statistical analyses to determine the significance of proliferative responses and the association with disease-free or disease-recurrence status.

PBMC [2] = assay: Cytokine analysis of PBMC culture supernatants (Cytoscreen immunoassay kits); type: cell-based, human; details: 48 h; for IL-4 production, number of patients positive/number tested: positive = above kit sensitivity 2.0 pg/ml; for IL-10 production, number of patients positive/number tested: positive = above kit sensitivity 5.0 pg/ml; for EL-12 production, number of patients positive/number tested: positive = above kit sensitivity IL-12 = 1.0 pg/ml; for IFN-γ production, number of patients positive/number tested: positive = above kit sensitivity 4.0 pg/ml; for EL-2 production, number of patients positive/number tested: positive = above kit sensitivity IL-2 = 8.7 pg/ml
Protocol: Cryopreserved PBMC were used for these assays. The PBMC (1×10^5) were incubated with various HPV peptides in RPMI-1640 medium (containing 10% fetal calf serum) in triplicate wells of 96-well round-bottom plates for 48 h at 37° C. Supernatants (100 μl) were removed from each well after centrifugation and stored frozen at −70° C. in another 96-well plate. The plates were then thawed and the supernatants assayed for various cytokines (IFN-γ, IL-2, IL-4, IL-10, and IL-12) using the Cytoscreen immunoassay kits (Biosource International, Camarillo, Calif.) according to the manufacturer's instructions.

Sequence: VYDFAFRDLC (listed as Human papillomavirus) [V10C, E6 peptide from HPV-16, aa 49-58]
- level of proliferative responses compared with the other peptides (PBMC [1]): higher levels of proliferative responses
- Proliferative Response No (SI < 3.0) to specific peptide, number (%) of women (PBMC [1]; Group 3 (disease-free), n = 22): 11 (50%)
- Proliferative Response No (SI < 3.0) to specific peptide, number (%) of women (PBMC [1]; Group 4 (recurrence), n = 10): 10 (100%)

Sequence: QLLRREVYDFAFRDL (listed as Human papillomavirus) [Q15L, E6 peptide from HPV-16, aa 43-57]
- level of proliferative responses compared with the other peptides (PBMC [1]): higher levels of proliferative responses
- Proliferative Response No (SI < 3.0) to specific peptide, number (%) of women (PBMC [1]; Group 3 (disease-free), n = 22): 11 (50%)
- Proliferative Response No (SI < 3.0) to specific peptide, number (%) of women (PBMC [1]; Group 4 (recurrence), n = 10): 10 (100%)
- IL-4 production, number of patients positive/number tested (PBMC [2]; Group 3 (n = 8)): none and 0/8
- IL-10 production, number of patients positive/number tested (PBMC [2]; Group 3 (n = 8)): 3 and 3/8
- EL-12 production, number of patients positive/number tested (PBMC [2]; Group 3 (n = 8)): 3 of 8 and 3/8
- IL-4 production, number of patients positive/number tested (PBMC [2]; Group 4 (n = 6)): 1 of the 6 and 1/6
- IFN-γ production, number of patients positive/number tested (PBMC [2]; Group 4 (n = 6)): 0/6
- IL-10 production, number of patients positive/number tested (PBMC [2]; Group 4 (n = 6)): 5 of 6 and 5/6
- EL-2 production, number of patients positive/number tested (PBMC [2]; Group 4 (n = 6)): 0/6
- EL-12 production, number of patients positive/number tested (PBMC [2]; Group 4 (n = 6)): 0/6

Sequence: STRTPEDSNSLGT (Murine) [c-mos peptide, peptide from the c-mos protooncogene, aa 158-170, used as a negative control, reference compound]
- stimulation index (SI), proliferative response (PBMC [1]; women in the four study groups): < 2.0

Sequence: RAHYNIVTF (listed as Human papillomavirus) [R9F, E7 peptide from HPV-16, aa 49-57]
- level of proliferative responses compared with the other peptides (PBMC [1]): higher levels of proliferative responses
- Proliferative Response No (SI < 3.0) to specific peptide, number (%) of women (PBMC [1]; Group 3 (disease-free), n = 22): 12 (54%)

Sequence: QAEPDRAHYNIVTFCCKCD (listed as Human papillomavirus) [Q19D, E7 peptide from HPV-16, aa 44-62]
- level of proliferative responses compared with the other peptides (PBMC [1]): higher levels of proliferative responses
- Proliferative Response No (SI < 3.0) to specific peptide, number (%) of women (PBMC [1]; Group 3 (disease-free), n = 22): 9 (41%)
- Proliferative Response No (SI < 3.0) to specific peptide, number (%) of women (PBMC [1]; Group 4 (recurrence), n = 10): 10 (100%)
- IL-4 production, number of patients positive/number tested (PBMC [2]; Group 3 (n = 8)): none and 0/8
- IL-10 production, number of patients positive/number tested (PBMC [2]; Group 3 (n = 8)): 3 and 3/8
- EL-12 production, number of patients positive/number tested (PBMC [2]; Group 3 (n = 8)): 6 of 8 and 6/8
- IL-4 production, number of patients positive/number tested (PBMC [2]; Group 4 (n = 6)): 1 of the 6 and 1/6
- IFN-γ production, number of patients positive/number tested (PBMC [2]; Group 4 (n = 6)): 0/6
- IL-10 production, number of patients positive/number tested (PBMC [2]; Group 4 (n = 6)): 6 of 6 and 6/6
- EL-2 production, number of patients positive/number tested (PBMC [2]; Group 4 (n = 6)): 0/6
- EL-12 production, number of patients positive/number tested (PBMC [2]; Group 4 (n = 6)): 1/6
